What was measured:
[1] = oral administration; cited from earlier work
[2] = aqueous solution including 40% of a cosolvent and 10% of a surfactant or inclusion compound forming agent (hydroxypropyl-β-cyclodextrin); cited from earlier work
[3] = Dissolution test (USP paddle method, purified water); format: physicochemical; details: after 3 hours; 900 mL purified water, paddle 50 rpm, 25 mg IH-901 equivalent
Procedure: The dissolution profile of a drug from the solid dispersion prepared in Example 2 was evaluated. IH-901, which had been used to prepare the solid dispersion of […], was used as a control group. The dissolution test was carried out under the conditions that the second method (paddle method) of the dissolution test methods in the general test method of the United states Phamacopoeia was used, 900 mL of purified water was used as a test liquid, and the rotational speed of a paddle was 50 rpm. 25 mg of IH-901 (control group) or the solid dispersion prepared in Example 2 corresponding to 25 mg of IH-901 was dissolved in a dissolution liquid, left for 180 minutes and then filtered. Then, the content of IH-901 in the filtered solution was measured by high performance liquid chromatography. The high performance liquid chromatograph is commercially available from Hitachi Co., Ltd. The analysis of high performance liquid chromatography was conducted under the conditions of a C18 column (Luna, 5 um, 250 mm, Phenomenex Corp., U.S.A), mobile phase of acetonitrile:water (70:30), a flow rate of 1 mL/min, a detection wavelength of 205 nm and an injection volume of 50 ul. In FIG. 1, the X-axis represents time passage, and the Y-axis represents dissolution rate (%). Further, in FIG. 1, the raw material is represented as ◯, and the solid dispersion prepared in Example 2 is represented by […].

For CC(C)=CCC[C@](C)(O[C@@H]1O[C@H](CO)[C@@H](O)[C@H](O)[C@H]1O)[C@H]1CC[C@]2(C)[C@@H]1[C@H](O)C[C@@H]1[C@@]3(C)CC[C@H](O)C(C)(C)[C@@H]3CC[C@]12C [IH-901, 20-O-β-D-glucopyranosyl-20(S)-protopanaxadiol], the bioavailability [1] is given as 3.5%, the “solubility of IH-901 in an aqueous solution” value [2] is given as no more than 10000 µg/mL and the dissolution rate [3] is given as “about 3%”.
